ChEMBL document CHEMBL1201862, “PubChem BioAssay data set” (2004)
Calls of active or inactive are those of the source. Cut-off read from the data, not from the text of the source, for most assays here: actives have a measured EC50 and inactives only a lower limit.

Target: T1, Protein RecA (Mycobacterium tuberculosis, UniProt P9WHJ3)
T1 sequence (P9WHJ3 whole entry): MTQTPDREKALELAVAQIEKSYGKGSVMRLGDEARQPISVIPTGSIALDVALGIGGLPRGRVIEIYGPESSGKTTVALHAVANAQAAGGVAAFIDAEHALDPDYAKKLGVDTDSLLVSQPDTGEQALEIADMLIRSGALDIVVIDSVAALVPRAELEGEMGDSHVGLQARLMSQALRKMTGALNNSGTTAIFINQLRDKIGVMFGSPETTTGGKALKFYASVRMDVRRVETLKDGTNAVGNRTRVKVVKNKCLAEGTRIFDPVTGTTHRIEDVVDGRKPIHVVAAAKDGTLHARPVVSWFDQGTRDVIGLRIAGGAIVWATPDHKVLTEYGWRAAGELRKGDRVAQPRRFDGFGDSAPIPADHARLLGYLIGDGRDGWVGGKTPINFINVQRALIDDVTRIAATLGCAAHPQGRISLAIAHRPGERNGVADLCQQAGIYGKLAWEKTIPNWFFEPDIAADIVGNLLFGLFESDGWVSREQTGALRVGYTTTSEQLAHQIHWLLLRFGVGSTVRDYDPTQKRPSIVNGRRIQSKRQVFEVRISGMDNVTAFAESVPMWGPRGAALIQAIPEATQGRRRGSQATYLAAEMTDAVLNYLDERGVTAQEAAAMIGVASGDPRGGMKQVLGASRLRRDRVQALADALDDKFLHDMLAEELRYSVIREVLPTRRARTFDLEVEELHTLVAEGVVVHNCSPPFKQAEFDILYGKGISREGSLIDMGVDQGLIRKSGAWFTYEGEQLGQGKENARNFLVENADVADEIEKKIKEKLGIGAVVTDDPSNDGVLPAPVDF
Experiment: Fluorescence Cell-Free Homogeneous Dose Retest to Identify Inhibitors of RecA-Intein Splicing Activity. [Related pubchem assays (depositor defined):AID2097, AID2223, AID489010, AID492950]
Type: functional
Conditions: not given

| Compound | EC50 |
| --- | --- |
| ClCc1nnc(-c2cc3c(s2)CCCC3)o1 | 3.55 µM (active) |
| Oc1cc(-c2ccccc2)n[nH]1 | 0.517 µM (active) |
| COc1cc(/C=C2/C(=O)N(c3ccc(Br)cc3)N=C2C)cc(OC)c1OC | 12.4 µM (active) |
| CCCCN(C(=O)c1cccc2c(=O)c(C)c(-c3ccccc3)oc12)c1ccccc1 | 15.2 µM (active) |
| CCCc1n[nH]c2c1C(c1ccc(OC)cc1OC)C(C#N)=C(N)O2 (stereo unspecified) | 4.07 µM (active) |
| CCOC(=O)c1ccc(CC2S/C(=C(\C#N)C(C)=O)NC2=O)cc1 (stereo unspecified) | > 380 µM (inactive) |
| Oc1ccc(Nc2nc(-c3ccc(O)cc3)cs2)cc1 | 43.8 µM (active) |

Target: Cytochrome P450 3A4 (Homo sapiens, UniProt P08684);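 note: CYP3A4 tested as one member of a cytochrome P450 panel screen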
Conditions: not given

Chain of Cytochrome P450 3A4 (P08684 whole entry): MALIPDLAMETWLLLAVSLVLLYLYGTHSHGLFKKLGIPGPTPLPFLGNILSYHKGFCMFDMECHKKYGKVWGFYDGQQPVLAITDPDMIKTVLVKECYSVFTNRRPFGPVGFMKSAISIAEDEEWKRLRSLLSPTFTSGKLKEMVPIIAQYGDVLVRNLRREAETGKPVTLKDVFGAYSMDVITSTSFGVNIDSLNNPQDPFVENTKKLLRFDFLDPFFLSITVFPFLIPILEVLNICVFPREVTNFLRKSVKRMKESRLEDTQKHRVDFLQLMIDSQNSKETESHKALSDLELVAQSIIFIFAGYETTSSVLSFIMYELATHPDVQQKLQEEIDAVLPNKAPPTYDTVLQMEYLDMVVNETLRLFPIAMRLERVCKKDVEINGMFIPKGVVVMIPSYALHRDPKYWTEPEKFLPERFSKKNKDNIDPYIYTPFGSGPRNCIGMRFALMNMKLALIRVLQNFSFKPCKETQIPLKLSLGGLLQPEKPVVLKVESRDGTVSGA

| Compound | AC50 |
| --- | --- |
| O=C(Nc1ncc(Cc2cccc(Cl)c2)s1)c1cccs1 | 15.8 µM (inconclusive) |

Target: T2, Replicative DNA helicase DnaB (Mycobacterium tuberculosis, UniProt P9WMR3)
T2 sequence (P9WMR3 whole entry): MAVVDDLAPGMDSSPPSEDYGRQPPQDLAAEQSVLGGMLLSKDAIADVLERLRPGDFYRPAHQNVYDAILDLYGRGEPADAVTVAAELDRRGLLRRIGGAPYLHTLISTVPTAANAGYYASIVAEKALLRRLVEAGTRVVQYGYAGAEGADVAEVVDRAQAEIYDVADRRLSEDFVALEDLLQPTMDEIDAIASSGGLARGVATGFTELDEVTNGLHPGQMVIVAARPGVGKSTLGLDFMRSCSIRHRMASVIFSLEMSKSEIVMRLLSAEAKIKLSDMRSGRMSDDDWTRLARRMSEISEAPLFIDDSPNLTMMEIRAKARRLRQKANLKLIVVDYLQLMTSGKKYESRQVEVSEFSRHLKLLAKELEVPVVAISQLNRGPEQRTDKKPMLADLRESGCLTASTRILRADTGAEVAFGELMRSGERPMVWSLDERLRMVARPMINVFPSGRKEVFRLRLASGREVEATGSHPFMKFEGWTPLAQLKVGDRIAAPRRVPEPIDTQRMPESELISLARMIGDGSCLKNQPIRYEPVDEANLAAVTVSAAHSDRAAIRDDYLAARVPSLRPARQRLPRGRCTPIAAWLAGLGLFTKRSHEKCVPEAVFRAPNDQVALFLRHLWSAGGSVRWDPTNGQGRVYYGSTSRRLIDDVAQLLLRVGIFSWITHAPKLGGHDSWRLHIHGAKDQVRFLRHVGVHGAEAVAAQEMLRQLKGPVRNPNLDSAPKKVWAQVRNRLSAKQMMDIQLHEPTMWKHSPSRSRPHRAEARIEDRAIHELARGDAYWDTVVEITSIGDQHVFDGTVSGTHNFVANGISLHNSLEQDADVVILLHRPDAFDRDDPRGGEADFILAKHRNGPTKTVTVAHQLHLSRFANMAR
Experiment: DnaB intein splicing inhibitors, dose response, biochemical, cell-free fluorescence (AID 449749)
Type: functional
Conditions: not given

| Compound | AC50 |
| --- | --- |
| ClCc1nnc(-c2cc3c(s2)CCCC3)o1 | 10.7 µM (active) |
| Oc1cc(-c2ccccc2)n[nH]1 | 1.43 µM (active) |
| COc1cc(/C=C2/C(=O)N(c3ccc(Br)cc3)N=C2C)cc(OC)c1OC | 4.08 µM (active) |
| CCCCN(C(=O)c1cccc2c(=O)c(C)c(-c3ccccc3)oc12)c1ccccc1 | 4.15 µM (active) |
| CCCc1n[nH]c2c1C(c1ccc(OC)cc1OC)C(C#N)=C(N)O2 (stereo unspecified) | 6.28 µM (active) |
| CCOC(=O)c1ccc(CC2S/C(=C(\C#N)C(C)=O)NC2=O)cc1 (stereo unspecified) | > 380 µM (inactive) |
| Oc1ccc(Nc2nc(-c3ccc(O)cc3)cs2)cc1 | 111 µM (active) |

Target: T3, Heat shock factor protein 1 (Mus musculus, UniProt P38532)
T3 sequence (P38532 whole entry): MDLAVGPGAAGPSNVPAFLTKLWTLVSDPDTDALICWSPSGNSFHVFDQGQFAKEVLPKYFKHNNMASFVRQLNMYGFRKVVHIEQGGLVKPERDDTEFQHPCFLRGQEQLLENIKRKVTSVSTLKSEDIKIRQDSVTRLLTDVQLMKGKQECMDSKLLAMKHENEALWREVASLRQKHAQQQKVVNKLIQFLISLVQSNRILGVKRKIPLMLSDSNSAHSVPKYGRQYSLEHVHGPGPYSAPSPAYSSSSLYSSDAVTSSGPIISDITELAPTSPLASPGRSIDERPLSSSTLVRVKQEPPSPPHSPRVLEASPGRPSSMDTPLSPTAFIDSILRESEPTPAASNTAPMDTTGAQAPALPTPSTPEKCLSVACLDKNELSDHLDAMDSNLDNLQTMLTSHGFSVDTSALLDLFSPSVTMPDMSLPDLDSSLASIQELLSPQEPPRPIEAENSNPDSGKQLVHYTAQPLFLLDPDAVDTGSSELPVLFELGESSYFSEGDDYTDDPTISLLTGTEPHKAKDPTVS
Experiment: decrease of HSF1-responsive luciferase luminescence – cell-based, NIH3T3, dose retest, confirmation (AID 2382);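 note: NIH3T3 fibroblasts with HSF1-driven luciferase reporter stressed by proteasome inhibitor MG132; luminescence from HSF1-driven luciferase expression after 8 hours of MG132 stress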
Type: functional
Conditions: not given

| Compound | EC50 |
| --- | --- |
| Cc1cc(=O)n2nc(-c3ccc(C(F)(F)F)cc3)sc2n1 | > 195 µM (not active) |
| CN(CC(=O)Nc1ccc(F)cc1)C(=O)COC(=O)c1cc(S(=O)(=O)N(C)C)ccc1N1CCCC1 | > 195 µM (not active) |
| COc1ccc(CCNCC(O)Cn2ccc3ccccc32)cc1OC (stereo unspecified) | > 100 µM (not active) |
| CCCn1c(N2CCN(CC(=O)NCc3cccs3)CC2)nc2ccccc21 | > 195 µM (not active) |
| Cc1ccc(Cn2c(Sc3ncccn3)nc3c2c(=O)[nH]c(=O)n3C)cc1 | > 195 µM (not active) |
| CNC(=O)c1ccsc1NC(=O)c1ccc(Cl)s1 | > 195 µM (not active) |
| O=C(OC(C(=O)NC1CCCC1)c1ccncc1)C1=Cc2ccccc2OC1 (stereo unspecified) | > 195 µM (not active) |
| O=C(c1cc(Br)c[nH]1)N1CCSCC1 | > 195 µM (not active) |
| CCOc1ccc(N(CC(=O)NN=C2CCCC2)S(C)(=O)=O)cc1 | > 195 µM (not active) |
| COc1cccc(-n2nc(-c3ccnn3-c3cccc(Cl)c3)c(=O)n(C)c2=O)c1 | > 195 µM (not active) |

Target: T4, Streptokinase A (Streptococcus pyogenes serotype M1, UniProt P10520)
T4 sequence (P10520 whole entry): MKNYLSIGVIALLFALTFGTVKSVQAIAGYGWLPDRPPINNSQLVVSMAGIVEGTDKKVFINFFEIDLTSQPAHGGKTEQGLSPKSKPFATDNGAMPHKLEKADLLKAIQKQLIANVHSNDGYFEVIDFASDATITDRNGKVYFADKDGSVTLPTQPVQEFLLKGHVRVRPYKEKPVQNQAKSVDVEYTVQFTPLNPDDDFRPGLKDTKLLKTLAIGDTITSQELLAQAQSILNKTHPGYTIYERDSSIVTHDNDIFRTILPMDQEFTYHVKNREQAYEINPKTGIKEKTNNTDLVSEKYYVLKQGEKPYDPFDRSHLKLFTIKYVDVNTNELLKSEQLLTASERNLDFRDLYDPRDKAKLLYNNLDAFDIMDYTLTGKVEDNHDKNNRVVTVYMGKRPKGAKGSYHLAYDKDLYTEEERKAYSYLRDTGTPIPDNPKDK
Experiment: viability-normalized secreted streptokinase activity reduction – plasminogen activation absorbance, OD405, dose response (AID 1914);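 note: secreted streptokinase activity via plasminogen activation per viability signal from cell pellet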
Type: functional, Streptococcus pyogenes M1 GAS
Conditions: not given

| Compound | EC50 |
| --- | --- |
| O=C(Nc1ncc(Cc2cccc(Cl)c2)s1)c1cccs1 | > 150 µM (not active) |

Tested on: Streptococcus
Experiment: GAS UMAA2166 growth inhibition – luminescence, BacTiterGlo, counter-screen for streptokinase expression inhibitor project, dose response (AID 1915);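 note: potency for reduction of bacterial viability or growth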
Type: functional, organism-based
Conditions: not given

| Compound | EC50 |
| --- | --- |
| O=C(Nc1ncc(Cc2cccc(Cl)c2)s1)c1cccs1 | 7.17 µM (active) |

Target: Cytochrome P450 2D6 (Homo sapiens, UniProt P10635);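 note: CYP2D6 member of a cytochrome P450 panel assay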
Conditions: not given

Chain of Cytochrome P450 2D6 (P10635 whole entry): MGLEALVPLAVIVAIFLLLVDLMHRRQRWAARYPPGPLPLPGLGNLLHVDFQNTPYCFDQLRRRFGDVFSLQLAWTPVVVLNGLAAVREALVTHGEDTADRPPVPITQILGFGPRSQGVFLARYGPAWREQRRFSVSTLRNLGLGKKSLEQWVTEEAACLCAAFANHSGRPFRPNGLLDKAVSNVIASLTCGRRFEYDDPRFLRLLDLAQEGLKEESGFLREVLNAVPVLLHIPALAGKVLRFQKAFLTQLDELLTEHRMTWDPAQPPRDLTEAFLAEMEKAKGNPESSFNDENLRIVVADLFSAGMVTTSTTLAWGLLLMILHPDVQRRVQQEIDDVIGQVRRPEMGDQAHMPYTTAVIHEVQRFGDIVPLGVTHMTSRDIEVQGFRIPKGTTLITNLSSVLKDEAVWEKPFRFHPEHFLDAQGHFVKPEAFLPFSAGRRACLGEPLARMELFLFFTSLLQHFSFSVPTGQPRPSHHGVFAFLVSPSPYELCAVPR

| Compound | AC50 |
| --- | --- |
| O=C(Nc1ncc(Cc2cccc(Cl)c2)s1)c1cccs1 | 7.08 µM (inconclusive) |

Tested on: H4
Experiment: Luminescence Cell-Based Dose Response HTS to Identify Activators of 5'UTR Stem-Loop Driven Prion Protein mRNA Translation in H4 Neuroglioblastoma Cells. [Related pubchem assays: 1829 (Project Summary), 1814 (Primary HTS)]
Type: functional
Conditions: Homo sapiens

| Compound | EC50 |
| --- | --- |
| Cc1cc(=O)n2nc(-c3ccc(C(F)(F)F)cc3)sc2n1 | 8.75 µM (active) |

Tested on: Streptococcus sp. 'group A'
Experiment: Streptococcus pyogenes SK(-)GAS viability under kanamycin – luminescence, BacTiterGlo, confirmation, counter-screen for streptokinase expression inhibitor project, dose response (AID 1900)
Type: functional, organism-based
Conditions: not given

| Compound | EC50 |
| --- | --- |
| O=C(Nc1ncc(Cc2cccc(Cl)c2)s1)c1cccs1 | 3.67 µM (active) |

Tested on: not listed separately
Experiment: Luminescence Cell-Based Dose Response HTS to Identify Activators of Luciferase Translation or Activity in H4 […] Cells. [Related pubchem assays: 1829 (Project Summary), 1814 (Primary HTS)]
Type: functional
Conditions: not given

| Compound | EC50 |
| --- | --- |
| Cc1cc(=O)n2nc(-c3ccc(C(F)(F)F)cc3)sc2n1 | > 120 µM (not active) |
